Among the data in patent publication US20240316022A1 (TYRA BIOSCIENCES, INC., priority 2021, published 2024) are Kd values, retold here.

Holding throughout (assay): Kinase binding assay (kinase-tagged T7 phage, qPCR), Kd
One experiment deals with T1, FGFR1 (Homo sapiens, UniProt P11362).
T1 construct: made in house; host or cells: E. coli derived from BL21, infected with T7 phage
As to conditions: read-out: FGFR1 (Kd nM). As for the experimental part: (§1) Kinase-tagged T7 phage strains were prepared in an E. coli host derived from the BL21 strain. E. coli were grown to log-phase and infected with T7 phage and incubated with shaking at 32° C. until lysis. The lysates were centrifuged and filtered to remove cell debris. […] The liganded beads were blocked with excess biotin and washed with blocking buffer SeaBlock (Pierce), 1% BSA, 0.05% Tween 20, 1 mM DTT to remove unbound ligand and to reduce non-specific binding.
(§2) Kds were determined using an 11-point 3-fold compound dilution series with three DMSO control points. […] The compounds were then diluted directly into the assays such that the final concentration of DMSO was 0.9%. All reactions performed in polypropylene 384-well plate. Each was a final volume of 0.02 ml. […] The kinase concentration in the eluates was measured by qPCR.
(§3) Binding constants were calculated with a standard dose-response curve using the Hill equation: […]
(§4) The Hill Slope was set to −1. Curves were fitted using a non-linear least square fit with the Levenberg-Marquardt algorithm.

The next experiment has as its target T2, FGFR2 (Homo sapiens, UniProt P21802).
T2 construct: made in house; host or cells: E. coli derived from BL21, infected with T7 phage
As to conditions: read-out: FGFR2 (Kd nM). As for the experimental part: as §1, §2, §3, §4

In the next experiment the target is T3, FGFR3 (Homo sapiens, UniProt P22607).
T3 construct: made in house; host or cells: E. coli derived from BL21, infected with T7 phage
T3 sequence (P22607 23-806): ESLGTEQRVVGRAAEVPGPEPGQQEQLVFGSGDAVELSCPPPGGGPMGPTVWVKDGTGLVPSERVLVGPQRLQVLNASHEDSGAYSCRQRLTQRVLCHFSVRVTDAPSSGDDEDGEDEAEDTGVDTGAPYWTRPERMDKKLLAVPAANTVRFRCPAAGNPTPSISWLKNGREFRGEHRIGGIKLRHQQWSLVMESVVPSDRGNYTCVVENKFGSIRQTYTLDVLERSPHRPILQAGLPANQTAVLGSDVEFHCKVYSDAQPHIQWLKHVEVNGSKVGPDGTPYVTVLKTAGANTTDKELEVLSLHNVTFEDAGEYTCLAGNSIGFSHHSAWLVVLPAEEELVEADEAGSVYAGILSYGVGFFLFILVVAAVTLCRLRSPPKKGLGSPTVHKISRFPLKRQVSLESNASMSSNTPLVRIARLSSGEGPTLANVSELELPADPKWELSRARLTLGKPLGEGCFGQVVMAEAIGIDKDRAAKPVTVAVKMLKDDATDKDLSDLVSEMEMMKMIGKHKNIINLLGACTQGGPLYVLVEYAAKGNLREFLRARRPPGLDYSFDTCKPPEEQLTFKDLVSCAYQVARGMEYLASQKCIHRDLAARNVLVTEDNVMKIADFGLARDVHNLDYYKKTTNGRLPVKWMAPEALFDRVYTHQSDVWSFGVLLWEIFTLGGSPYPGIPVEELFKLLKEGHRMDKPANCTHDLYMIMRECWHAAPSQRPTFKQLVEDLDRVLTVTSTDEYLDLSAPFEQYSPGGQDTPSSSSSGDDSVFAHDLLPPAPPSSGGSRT
As to conditions: read-out: FGFR3 (Kd nM). On the procedure: (§5) Kinase-tagged T7 phage strains were prepared in an E. coli host derived from the BL21 strain. E. coli were grown to log-phase and infected with T7 phage and incubated with shaking at 32° C. until lysis. The lysates were centrifuged and filtered to remove cell debris. Streptavidin-coated magnetic beads were treated with biotinylated small molecule ligands for 30 minutes at room temperature to generate affinity resins for kinase assays. The liganded beads were blocked with excess biotin and washed with blocking buffer SeaBlock (Pierce), 1% BSA, 0.05% Tween 20, 1 mM DTT to remove unbound ligand and to reduce non-specific binding. Binding reactions were assembled by combining kinases, liganded affinity beads, and test compounds in 1× binding buffer (20% SeaBlock, 0.17×PBS, 0.05% Tween 20, 6 mM DTT).
(§6) Test compounds were prepared as 111X stocks in 100% DMSO. Kds were determined using an 11-point 3-fold compound dilution series with three DMSO control points. All compounds for Kd measurements are distributed by acoustic transfer (non-contact dispensing) in 100% DMSO. The compounds were then diluted directly into the assays such that the final concentration of DMSO was 0.9%. All reactions performed in polypropylene 384-well plate. Each was a final volume of 0.02 ml. The assay plates were incubated at room temperature with shaking for 1 hour and the affinity beads were washed with wash buffer (1×PBS, 0.05% Tween 20). The beads were then re-suspended in elution buffer (1×PBS, 0.05% Tween 20, 0.5 μM non-biotinylated affinity ligand) and incubated at room temperature with shaking for 30 minutes. The kinase concentration in the eluates was measured by qPCR.
as §3, §4

Another experiment has as its target T4, FGFR4 (Homo sapiens, UniProt P22455).
T4 construct: made in house; host or cells: E. coli derived from BL21, infected with T7 phage
As to conditions: read-out: FGFR4 (Kd nM). On the procedure:
as §5, §6, §3, §4

T4 sequence (P22455 22-802): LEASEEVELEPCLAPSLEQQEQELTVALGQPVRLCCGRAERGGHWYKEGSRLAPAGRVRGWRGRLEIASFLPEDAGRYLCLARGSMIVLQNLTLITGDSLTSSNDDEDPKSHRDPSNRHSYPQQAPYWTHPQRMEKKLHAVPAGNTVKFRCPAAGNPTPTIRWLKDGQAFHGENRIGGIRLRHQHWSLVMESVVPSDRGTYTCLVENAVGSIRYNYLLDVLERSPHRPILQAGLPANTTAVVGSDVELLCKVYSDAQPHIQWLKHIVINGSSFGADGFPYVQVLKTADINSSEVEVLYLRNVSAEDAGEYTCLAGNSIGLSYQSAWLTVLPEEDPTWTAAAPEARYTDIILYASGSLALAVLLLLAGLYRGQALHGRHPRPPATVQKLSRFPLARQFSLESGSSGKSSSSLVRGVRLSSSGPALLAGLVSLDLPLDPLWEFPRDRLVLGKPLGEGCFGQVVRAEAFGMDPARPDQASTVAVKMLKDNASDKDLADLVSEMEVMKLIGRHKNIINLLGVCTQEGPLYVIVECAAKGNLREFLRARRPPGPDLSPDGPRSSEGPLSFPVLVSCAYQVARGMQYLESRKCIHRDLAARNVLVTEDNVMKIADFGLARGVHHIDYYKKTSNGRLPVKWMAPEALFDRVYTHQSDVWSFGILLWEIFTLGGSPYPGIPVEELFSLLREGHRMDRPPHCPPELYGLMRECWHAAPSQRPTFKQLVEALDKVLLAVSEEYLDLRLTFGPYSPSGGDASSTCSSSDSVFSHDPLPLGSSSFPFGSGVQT
T2 sequence (P21802 22-821): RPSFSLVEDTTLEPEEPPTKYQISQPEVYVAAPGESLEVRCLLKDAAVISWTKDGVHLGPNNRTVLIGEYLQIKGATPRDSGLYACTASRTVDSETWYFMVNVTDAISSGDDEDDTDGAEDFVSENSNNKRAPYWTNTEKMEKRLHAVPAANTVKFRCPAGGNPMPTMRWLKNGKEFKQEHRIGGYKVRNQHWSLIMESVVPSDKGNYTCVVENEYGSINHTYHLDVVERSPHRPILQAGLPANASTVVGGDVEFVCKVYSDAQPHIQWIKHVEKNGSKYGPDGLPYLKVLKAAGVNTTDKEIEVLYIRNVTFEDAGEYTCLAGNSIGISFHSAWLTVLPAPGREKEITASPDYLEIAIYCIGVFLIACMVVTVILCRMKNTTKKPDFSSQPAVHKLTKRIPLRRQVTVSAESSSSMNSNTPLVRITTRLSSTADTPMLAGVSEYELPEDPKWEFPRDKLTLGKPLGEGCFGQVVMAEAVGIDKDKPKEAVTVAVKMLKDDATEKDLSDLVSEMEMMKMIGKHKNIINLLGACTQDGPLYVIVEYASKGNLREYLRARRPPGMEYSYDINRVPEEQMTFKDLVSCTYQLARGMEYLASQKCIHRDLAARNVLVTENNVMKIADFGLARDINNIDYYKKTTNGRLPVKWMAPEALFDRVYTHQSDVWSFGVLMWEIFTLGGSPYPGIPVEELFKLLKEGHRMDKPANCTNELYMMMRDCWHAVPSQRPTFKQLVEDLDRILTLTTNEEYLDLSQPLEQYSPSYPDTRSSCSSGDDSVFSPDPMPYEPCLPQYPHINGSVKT
T1 sequence (P11362 22-822): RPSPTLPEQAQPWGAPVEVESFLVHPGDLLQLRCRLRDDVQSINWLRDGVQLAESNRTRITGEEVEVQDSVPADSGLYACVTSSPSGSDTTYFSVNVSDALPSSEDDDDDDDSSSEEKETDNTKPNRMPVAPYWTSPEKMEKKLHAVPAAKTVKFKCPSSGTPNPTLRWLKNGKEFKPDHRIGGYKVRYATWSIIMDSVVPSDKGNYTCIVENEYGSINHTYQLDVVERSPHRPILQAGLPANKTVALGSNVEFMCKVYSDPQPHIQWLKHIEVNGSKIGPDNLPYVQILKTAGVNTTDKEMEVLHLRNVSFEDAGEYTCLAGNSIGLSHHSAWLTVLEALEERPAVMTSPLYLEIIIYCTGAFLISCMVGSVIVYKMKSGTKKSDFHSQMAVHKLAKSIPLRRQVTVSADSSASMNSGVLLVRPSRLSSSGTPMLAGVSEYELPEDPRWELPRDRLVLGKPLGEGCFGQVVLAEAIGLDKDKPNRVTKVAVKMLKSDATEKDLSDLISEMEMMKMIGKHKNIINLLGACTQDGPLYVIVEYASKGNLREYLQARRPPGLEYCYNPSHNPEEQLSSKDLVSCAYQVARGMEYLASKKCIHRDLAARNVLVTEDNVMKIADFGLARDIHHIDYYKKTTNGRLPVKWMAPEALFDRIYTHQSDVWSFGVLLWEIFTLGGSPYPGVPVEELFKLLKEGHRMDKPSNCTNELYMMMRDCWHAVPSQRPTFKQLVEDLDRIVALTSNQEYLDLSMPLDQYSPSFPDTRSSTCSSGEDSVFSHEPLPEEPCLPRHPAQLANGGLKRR

As a reminder, the Kd is a measure of binding affinity in units of concentration. In the case of `COc1cc(C#N)cc(-c2n[nH]c3ccc(O[C@@H](C)c4c(C)cnnc4C)cc23)c1` [Example 55, 3-[5-[(1S)-1-(3,5-dimethylpyridazin-4-yl)ethoxy]-1H-indazol-3-yl]-5-methoxy-benzonitrile], the Kd is over 1000 nM at FGFR1, over 1000 nM at FGFR2, over 1000 nM at FGFR3 and 250 to 1000 nM on FGFR4.

On to `CCOc1cc(C#N)cc(-c2n[nH]c3ccc(O[C@H](C)c4c(C)cnnc4C)cc23)c1` [Example 56, 3-[5-[(1R)-1-(3,5-dimethylpyridazin-4-yl)ethoxy]-1H-indazol-3-yl]-5-ethoxy-benzonitrile], for which the Kd on FGFR1 fell in the range of 250 to 1000 nM; on FGFR2, 250 to 1000 nM; on FGFR3, 100 to 250 nM; on FGFR4 it was 0.1 to 100 nM.

For `Cc1cnnc(C)c1[C@@H](C)Oc1ccc2[nH]nc(-c3cc(C#N)cc(OC(C)C)c3)c2c1` [Example 57, 3-[5-[(1R)-1-(3,5-dimethylpyridazin-4-yl)ethoxy]-1H-indazol-3-yl]-5-isopropoxy-benzonitrile], the Kd was 250 to 1000 nM on FGFR1, over 1000 nM on FGFR2, 250 to 1000 nM at FGFR3 and 0.1 to 100 nM at FGFR4.

Turning to `COc1cc(OC)cc(-c2n[nH]c3ccc(O[C@@H](C)c4c(C)cnnc4C)cc23)c1` [Example 58, 3-(3,5-dimethoxyphenyl)-5-[(1S)-1-(3,5-dimethylpyridazin-4-yl)ethoxy]-1H-indazole], the dissociation constant (Kd) on FGFR1, at FGFR2, on FGFR3 and on FGFR4 was 0.1 to 100 nM throughout.

As for `CCOc1cc(OC)cc(-c2n[nH]c3ccc(O[C@@H](C)c4c(C)cnnc4C)cc23)c1` [Example 59, 5-[(1S)-1-(3,5-dimethylpyridazin-4-yl)ethoxy]-3-(3-ethoxy-5-methoxy-phenyl)-1H-indazole], the Kd on FGFR1, at FGFR2, at FGFR3 and at FGFR4 was over 1000 nM in each case.

Regarding `COc1cc(OC(C)C)cc(-c2n[nH]c3ccc(O[C@H](C)c4c(C)cnnc4C)cc23)c1` [Example 60, 5-[(1R)-1-(3,5-dimethylpyridazin-4-yl)ethoxy]-3-(3-isopropoxy-5-methoxy-phenyl)-1H-indazole], the Kd on FGFR1, on FGFR2, on FGFR3 and on FGFR4 was over 1000 nM each time.

As to `Cc1cnnc(C)c1[C@@H](C)Oc1ccc2[nH]nc(-c3cc(C#N)cc(OC(F)(F)F)c3)c2c1` [Example 61, 3-[5-[(1R)-1-(3,5-dimethylpyridazin-4-yl)ethoxy]-1H-indazol-3-yl]-5-(trifluoromethoxy)-benzonitrile], the Kd at FGFR1 is over 1000 nM; on FGFR2 it was over 1000 nM; on FGFR3, over 1000 nM; on FGFR4, 250 to 1000 nM.

Regarding `Cc1cnnc(C)c1[C@@H](C)Oc1ccc2[nH]nc(-c3cc(C#N)cc(N4CCN(C)CC4)c3)c2c1` [Example 62, 3-[5-[(1R)-1-(3,5-dimethylpyridazin-4-yl)ethoxy]-1H-indazol-3-yl]-5-(4-methylpiperazin-1-yl)benzonitrile], the Kd was over 1000 nM at FGFR1, over 1000 nM at FGFR2, over 1000 nM on FGFR3 and 100 to 250 nM on FGFR4.

As to `COc1cc(OC(F)(F)F)cc(-c2n[nH]c3ccc(O[C@H](C)c4c(C)cnnc4C)cc23)c1` [Example 63, 5-[(1R)-1-(3,5-dimethylpyridazin-4-yl)ethoxy]-3-[3-methoxy-5-(trifluoromethoxy)phenyl]-1H-indazole], the Kd at FGFR1 is over 1000 nM; at FGFR2, over 1000 nM; at FGFR3 it was 250 to 1000 nM; at FGFR4, 0.1 to 100 nM.

`Cc1cnnc(C)c1[C@@H](C)Oc1ccc2[nH]nc(-c3cc(C#N)cc(N4CCOCC4)c3)c2c1` [Example 64, 3-[5-[(1R)-1-(3,5-Dimethylpyridazin-4-yl)ethoxy]-1H-indazol-3-yl]-5-morpholino-benzonitrile]: the Kd on FGFR1 is over 1000 nM; at FGFR2, over 1000 nM; on FGFR3, over 1000 nM; at FGFR4 it was 100 to 250 nM.

For the compound `Cc1cnnc(C)c1[C@H](C)Oc1ccc2[nH]nc(-c3cc(C#N)cc(N4CCOCC4)c3)c2c1` [Example 65, 3-[5-[(1S)-1-(3,5-Dimethylpyridazin-4-yl)ethoxy]-1H-indazol-3-yl]-5-morpholino-benzonitrile], the Kd on FGFR1, on FGFR2, at FGFR3 and at FGFR4 was over 1000 nM throughout.

For `Cc1cnnc(C)c1[C@H](C)Oc1ccc2[nH]nc(-c3cc(C#N)cc(N4CCN(C)CC4)c3)c2c1` [Example 66, 3-[5-[(1S)-1-(3,5-dimethylpyridazin-4-yl)ethoxy]-1H-indazol-3-yl]-5-(4-methylpiperazin-1-yl)benzonitrile], the Kd on FGFR1 is over 1000 nM; on FGFR2 it was over 1000 nM; at FGFR3 it was over 1000 nM; at FGFR4, 250 to 1000 nM.

For the compound `Cc1cnnc(C)c1[C@@H](C)Oc1ccc2[nH]nc(-c3cc(C#N)cc(OC4CCOC4)c3)c2c1` (stereo partly drawn) [Example 67, 3-[5-[(1R)-1-(3,5-dimethylpyridazin-4-yl)ethoxy]-1H-indazol-3-yl]-5-tetrahydrofuran-3-yloxy-benzonitrile], the Kd at FGFR1 lay in the range of 100 to 250 nM; at FGFR2, 250 to 1000 nM; at FGFR3 it was 100 to 250 nM; on FGFR4, 0.1 to 100 nM.

As for `COc1cc(OCC2CC2)cc(-c2n[nH]c3ccc(O[C@H](C)c4c(C)cnnc4C)cc23)c1` [Example 68, 3-[3-(cyclopropyl-methoxy)-5-methoxy-phenyl]-5-[(1R)-1-(3,5-dimethylpyridazin-4-yl)ethoxy]-1H-indazole], the Kd on FGFR1 is over 1000 nM; at FGFR2 it was over 1000 nM; at FGFR3, over 1000 nM; on FGFR4 it was 0.1 to 100 nM.

With `Cc1cc(-c2n[nH]c3ccc(O[C@H](C)c4c(C)cnnc4C)cc23)cc(C#N)n1` [Example 69, 4-[5-[(1R)-1-(3,5-Dimethylpyridazin-4-yl)ethoxy]-1H-indazol-3-yl]-6-methyl-pyridine-2-carbonitrile], the Kd at FGFR1 fell in the range of 100 to 250 nM; on FGFR2, 0.1 to 100 nM; on FGFR3, 0.1 to 100 nM; on FGFR4 it was 0.1 to 100 nM.

With `Cc1cc(-c2n[nH]c3ccc(O[C@@H](C)c4c(C)cnnc4C)cc23)cc(C#N)n1` [Example 70, 4-[5-[(1S)-1-(3,5-Dimethylpyridazin-4-yl)ethoxy]-1H-indazol-3-yl]-6-methyl-pyridine-2-carbonitrile], the Kd on FGFR1, on FGFR2, on FGFR3 and on FGFR4 was over 1000 nM throughout.

With `Cc1cnnc(C)c1[C@@H](C)Oc1ccc2[nH]nc(-c3cc(C#N)cc(OC4CCOCC4)c3)c2c1` [Example 71, 3-[5-[(1R)-1-(3,5-dimethylpyridazin-4-yl)ethoxy]-1H-indazol-3-yl]-5-tetrahydropyran-4-yloxy-benzonitrile], the Kd at FGFR1 is 250 to 1000 nM; at FGFR2 it was over 1000 nM; at FGFR3 it was 250 to 1000 nM; on FGFR4, 0.1 to 100 nM.

Turning to `CCOCCOc1cc(C#N)cc(-c2n[nH]c3ccc(O[C@H](C)c4c(C)cnnc4C)cc23)c1` [Example 73, 3-[5-[(1R)-1-(3,5-dimethylpyridazin-4-yl)ethoxy]-1H-indazol-3-yl]-5-(2-ethoxyethoxy)-benzonitrile], the Kd is over 1000 nM at FGFR1, 250 to 1000 nM at FGFR2, 100 to 250 nM at FGFR3 and 0.1 to 100 nM on FGFR4.
